Data: US5968910A, “Compositions containing two or three inhibitors of different HIV reverse transcriptases” (priority 1994, dated 1999)
Converted amounts (≈) assume the structure as drawn. Where two headings read alike, the source gives them in different places.

Key:
HIV-1(IIIB) (WT) = assay: microbe, parasite or virus in culture; format: cell-based; conditions: Human immunodeficiency virus 1, IIIB, CCRF-CEM
In short: (§1)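 Infect CEM cells (250,000 cells per ml) with virus at 100 CCID50/ml; add infected suspension to wells holding diluted compound; incubate 4 days, 37° C.; examine for syncytia.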

[1] = test system: HIV-1/TSAO-m^3 T (138-Lys); assay: Sensitivity of mutant HIV-1 strain in CEM cell cultures; format: cell-based; conditions: Human immunodeficiency virus 1, CCRF-CEM; CEM cells, Table 1; read-out: 50% Effective Concentration
In short: as §1

[2] = test system: HIV-1/V(0.1) 101-Ile + 141-Glu; assay: as above; format: cell-based; conditions: Human immunodeficiency virus 1, CCRF-CEM; Table 5; read-out: EC50
In short: as §1

HIV-1/I(0.1) 103-Asn = assay: as above; format: cell-based; conditions: Human immunodeficiency virus 1, CCRF-CEM; Table 5; read-out: EC50
In short: as §1

[3] = test system: HIV-1/TIBO R82913 (103-Asn); assay: as above; format: cell-based; conditions: Human immunodeficiency virus 1, CCRF-CEM; CEM cells, Table 1; read-out: 50% Effective Concentration
In short: as §1

HIV-1/III(0.1) 103-Asn = assay: as above; format: cell-based; conditions: Human immunodeficiency virus 1, CCRF-CEM; Table 5; read-out: EC50
In short: as §1

HIV-1/Nev (106-Ala) = assay: as above; format: cell-based; conditions: Human immunodeficiency virus 1, CCRF-CEM; CEM cells, Table 1; read-out: 50% Effective Concentration
In short: as §1

[4] = test system: HIV-1/TIBO R82150 (100-Ile); assay: as above; format: cell-based; conditions: Human immunodeficiency virus 1, CCRF-CEM; CEM cells, Table 1; read-out: 50% Effective Concentration
In short: as §1

HIV-1/II(0.1) 100-Ile = assay: as above; format: cell-based; conditions: Human immunodeficiency virus 1, CCRF-CEM; Table 5; read-out: EC50
In short: as §1

HIV-1/V(0.5) 103-Asn = assay: as above; format: cell-based; conditions: Human immunodeficiency virus 1, CCRF-CEM; Table 5; read-out: EC50
In short: as §1

HIV-1/Pyr (181-Cys) = assay: as above; format: cell-based; conditions: Human immunodeficiency virus 1, CCRF-CEM; CEM cells, Table 1; read-out: 50% Effective Concentration
In short: as §1

HIV-1(IIIB) = assay: Knock-out concentrations: breakthrough of HIV-1(IIIB)-induced cytopathicity in CEM cell cultures; format: cell-based; conditions: for activity at 0.1 µg/mL / activity at 0.5 µg/mL / activity at 2.5 µg/mL: Human immunodeficiency virus 1, IIIB, CCRF-CEM, read-out: HIV-1-induced cytopathicity in cell culture; for activity at 0.1 µg/mL: 0.1 μg/ml; for activity at 0.5 µg/mL: 0.5 μg/ml; for activity at 2.5 µg/mL: 2.5 μg/ml
Description: The culture medium consisted of RPMI 1640 containing 10% fetal bovine serum, 2 mM L-glutamine, and 0.075% NaHCO3. The multiplicity of the initial infection was ~1000 times the CCID50 (50% cell culture infective dose). Passages were performed every 3 to 4 days by adding 0.5 to 1.0 ml of the infected culture supernatant to 5 ml of a suspension containing 4×10^5 uninfected CEM cells per ml. Syncytium formation was used as a parameter of virus breakthrough in the cell cultures. In the drug combination experiments, the compounds were combined at the same initial concentrations as used for the two lowest concentrations in the single-drug experiments.
The drug concentrations were kept constant throughout the whole time period of the experiment (10 subcultivations or 35 days). Then the drugs were removed from the cell cultures, and the cells were further subcultured for at least 5 additional passages.

HIV-1 RT (WT) = HIV-1 RT (WT) (Human immunodeficiency virus type 1 group M subtype B, UniProt P03366); assay: biochemical
Description: The reaction mixture (50 μl) contained 50 mM Tris.HCl, pH 7.8, 5 mM dithiothreitol, […] glutathione, 500 μM EDTA, 150 mM KCl, 5 mM MgCl2, 1.25 μg of bovine serum albumin, a fixed concentration of the labeled substrate [2,8-^3 H]dGTP (2.95 μM, 2 μCi), a fixed concentration of the template/primer poly(C).oligo(dG) (0.1 mM), 0.06% Triton X-100, 5 μl of inhibitor solution [containing various concentrations (5-fold dilutions) of the test compounds], and 5 μl of the RT preparation. The reaction mixtures were incubated at 37° C. for 30 min, at which time 100 μl of calf thymus DNA (150 μg/ml), 2 ml of Na4 P2 07 (0.1 M in 1M HCl), and 2 ml of trichloroacetic acid (10%, v/v) were added. The solutions were kept on ice for 30 min, after which the acid-insoluble material was washed and analyzed for radioactivity.
Compounds I, III, IV and V were evaluated for their inhibitory effect on recombinant HIV-1 RT.

[5] = 936 h, day 39 post infection, compound absent from day 35
[6] = 1008 h, day 42 post infection, compound absent from day 35
[7] = 1104 h, day 46 post infection, compound absent from day 35
[8] = 1176 h, day 49 post infection, compound absent from day 35
[9] = 1272 h, day 53 post infection, compound absent from day 35

O=C(OC1CCCCC1)c1cc(NC(=S)c2ccsc2)ccc1Cl [Compound V]
EC50 (HIV-1(IIIB) (WT); CEM cells, Table 1, read-out: 50% Effective Concentration): 0.03 µg/mL (≈ 0.079 µM) | EC50 (HIV-1(IIIB) (WT); HIV-1 (III8), Table 5, read-out: EC50): 0.03 µg/mL (≈ 0.079 µM) | IC50 (HIV-1(IIIB) (WT); range stated for Compounds I-V together, read-out: 50% inhibitory concentration, HIV-1(IIIB) replication in CEM cells): 0.004 to 0.05 µg/mL (≈ 0.0105 to 0.132 µM) | EC50 [1]: 0.075 µg/mL (≈ 0.197 µM) | EC50 [2]: 0.3 µg/mL (≈ 0.79 µM) | EC50 (HIV-1/I(0.1) 103-Asn): 1.75 µg/mL (≈ 4.61 µM) | EC50 [3]: > 1 µg/mL | EC50 (HIV-1/III(0.1) 103-Asn): 0.35 µg/mL (≈ 0.921 µM) | EC50 (HIV-1/Nev (106-Ala)): 0.073 µg/mL (≈ 0.192 µM) | EC50 [4]: 0.85 µg/mL (≈ 2.24 µM) | EC50 (HIV-1/II(0.1) 100-Ile): ≥ 5 µg/mL | EC50 (HIV-1/V(0.5) 103-Asn): ≥ 5 µg/mL | EC50 (HIV-1/Pyr (181-Cys)): 0.077 µg/mL (≈ 0.203 µM) | prevention of virus breakthrough, fold more efficient than BHAP (HIV-1(IIIB)): at least 5 fold | prevention of virus breakthrough, fold more efficient than nevirapine (HIV-1(IIIB)): ≥ 25 fold | activity at 0.1 µg/mL (HIV-1(IIIB); 96 h, day 4 post infection): 0% | activity at 0.5 µg/mL (HIV-1(IIIB); 96 h, day 4 post infection): 0% | activity at 2.5 µg/mL (HIV-1(IIIB); 96 h, day 4 post infection): 0% | activity at 0.1 µg/mL (HIV-1(IIIB); 192 h, day 8 post infection): 37.5% | activity at 0.5 µg/mL (HIV-1(IIIB); 192 h, day 8 post infection): 0% | activity at 2.5 µg/mL (HIV-1(IIIB); 192 h, day 8 post infection): 0% | activity at 0.1 µg/mL (HIV-1(IIIB); 264 h, day 11 post infection): 50% | activity at 0.5 µg/mL (HIV-1(IIIB); 264 h, day 11 post infection): 0% | activity at 2.5 µg/mL (HIV-1(IIIB); 264 h, day 11 post infection): 0% | activity at 0.1 µg/mL (HIV-1(IIIB); 336 h, day 14 post infection): 100% | activity at 0.5 µg/mL (HIV-1(IIIB); 336 h, day 14 post infection): 18.5% | activity at 2.5 µg/mL (HIV-1(IIIB); 336 h, day 14 post infection): 0% | activity at 0.1 µg/mL (HIV-1(IIIB); 408 h, day 17 post infection): 100% | activity at 0.5 µg/mL (HIV-1(IIIB); 408 h, day 17 post infection): 75% | activity at 2.5 µg/mL (HIV-1(IIIB); 408 h, day 17 post infection): 0% | activity at 0.1 µg/mL (HIV-1(IIIB); 504 h, day 21 post infection): 100% | activity at 0.5 µg/mL (HIV-1(IIIB); 504 h, day 21 post infection): 100% | activity at 2.5 µg/mL (HIV-1(IIIB); 504 h, day 21 post infection): 0% | activity at 0.1 µg/mL (HIV-1(IIIB); 600 h, day 25 post infection): 100% | activity at 0.5 µg/mL (HIV-1(IIIB); 600 h, day 25 post infection): 100% | activity at 2.5 µg/mL (HIV-1(IIIB); 600 h, day 25 post infection): 0% | activity at 0.1 µg/mL (HIV-1(IIIB); 672 h, day 28 post infection): 100% | activity at 0.5 µg/mL (HIV-1(IIIB); 672 h, day 28 post infection): 100% | activity at 2.5 µg/mL (HIV-1(IIIB); 672 h, day 28 post infection): 0% | activity at 0.1 µg/mL (HIV-1(IIIB); 768 h, day 32 post infection): 100% | activity at 0.5 µg/mL (HIV-1(IIIB); 768 h, day 32 post infection): 100% | activity at 2.5 µg/mL (HIV-1(IIIB); 768 h, day 32 post infection): 0% | activity at 0.1 µg/mL (HIV-1(IIIB); 840 h, day 35 post infection): 100% | activity at 0.5 µg/mL (HIV-1(IIIB); 840 h, day 35 post infection): 100% | activity at 2.5 µg/mL (HIV-1(IIIB); 840 h, day 35 post infection): 0% | activity at 0.1 µg/mL (HIV-1(IIIB); [5]): 100% | activity at 0.5 µg/mL (HIV-1(IIIB); [5]): 100% | activity at 2.5 µg/mL (HIV-1(IIIB); [5]): 0% | activity at 0.1 µg/mL (HIV-1(IIIB); [6]): 100% | activity at 0.5 µg/mL (HIV-1(IIIB); [6]): 100% | activity at 2.5 µg/mL (HIV-1(IIIB); [6]): 0% | activity at 0.1 µg/mL (HIV-1(IIIB); [7]): 100% | activity at 0.5 µg/mL (HIV-1(IIIB); [7]): 100% | activity at 2.5 µg/mL (HIV-1(IIIB); [7]): 0% | activity at 0.1 µg/mL (HIV-1(IIIB); [8]): 100% | activity at 0.5 µg/mL (HIV-1(IIIB); [8]): 100% | activity at 2.5 µg/mL (HIV-1(IIIB); [8]): 0% | activity at 0.1 µg/mL (HIV-1(IIIB); [9]): 100% | activity at 0.5 µg/mL (HIV-1(IIIB); [9]): 100% | activity at 2.5 µg/mL (HIV-1(IIIB); [9]): 0% | concentration at which virus emerged (virus breakthrough) (HIV-1(IIIB); tested at 0.1, 0.5 and 2.5 μg/ml, 35 days): 0.5 µg/mL | IC50 (HIV-1 RT (WT); range stated for the compounds together, poly(C).oligo(dG), 2.95 μM [2,8-3H]dGTP, read-out: IC50 on recombinant HIV-1 RT): 47.4 to 203 nM | IC50 (HIV-1 RT (WT); substrate [2,8-3H]dGTP 2.95 μM, template poly(rC)oligo(dG), read-out: IC50, anti-HIV-1 RT (WT) activity (converted)): 203 nM
